Results from patent US11492597B2, “Method for establishing colorectal cancer HK2 reporter gene cell line” (Guangdong Medical University, priority 2018, dated 2022).

Columns and labels:
EGFP = assay: 2-MeOE2 treatment of HK2 reporter cell line, transcriptional level of EGFP reporter; type: cell-based; settings: HK2 cell line treated for 24 h or 48 h, 10 uM, relative transcriptional level vs untreated control
Experimental: (§1) 2-Methoxyestradiol (2-MeOE2) is an HIF inhibitor, and at present, has entered an anti-tumor clinical second-stage test stage. […] The HK2 cell line is treated for 24 h or 48 h in 2-MeOE2 (10 uM), and the relative expression changes of the transcriptional level of HK2 and EGFP and those untreated as a control are analyzed. […] The experimental result further proves that the colorectal cancer HK2 reporter gene cell line constructed in the present invention can be used for screening and evaluating related anticancer drugs.

HK2 = assay: 2-MeOE2 treatment of HK2 reporter cell line, transcriptional level of HK2; type: cell-based; settings: HK2 cell line treated for 24 h or 48 h, 10 uM, relative transcriptional level vs untreated control
Experimental: as §1

COc1cc2c(cc1O)CC[C@@H]1[C@@H]2CC[C@]2(C)[C@@H](O)CC[C@@H]12 [2-MeOE2, 2-Methoxyestradiol]
expression of the EGFP (EGFP): synergistically inhibited
expression level of HK2 (HK2): obviously inhibited
